These results are taken from patent US20240208992A1, “MACROCYCLES AS CFTR MODULATORS” (Idorsia Pharmaceuticals Ltd, priority 2021, published 2024).

Each structure is given as a SMILES string.

This assay concerns the target human F508del-CFTR (Homo sapiens, UniProt P13569, DEL508-508). Put plainly: F508del-CFTR cell surface expression (corrector activity), DiscoveRx ß-galactosidase complementation chemiluminescence assay in recombinant U2OS cell line.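 For all read-outs here: U2OS cells co-expressing ProLink-tagged F508del-CFTR and a membrane-anchored enzyme acceptor, where more surface CFTR restores β-galactosidase activity measured by chemiluminescence.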 To be noted: 16h compound incubation; for EC50: EC50, F508del-CFTR cell surface expression; for Emax: U2OS, in relation to the Emax of the corrector lumacaftor (=100%).

[1] abbreviates: U2OS cell line, arithmetic mean values.

human F508del-CFTR, sequence (P13569 with tags, fused parts or gaps DEL508-508): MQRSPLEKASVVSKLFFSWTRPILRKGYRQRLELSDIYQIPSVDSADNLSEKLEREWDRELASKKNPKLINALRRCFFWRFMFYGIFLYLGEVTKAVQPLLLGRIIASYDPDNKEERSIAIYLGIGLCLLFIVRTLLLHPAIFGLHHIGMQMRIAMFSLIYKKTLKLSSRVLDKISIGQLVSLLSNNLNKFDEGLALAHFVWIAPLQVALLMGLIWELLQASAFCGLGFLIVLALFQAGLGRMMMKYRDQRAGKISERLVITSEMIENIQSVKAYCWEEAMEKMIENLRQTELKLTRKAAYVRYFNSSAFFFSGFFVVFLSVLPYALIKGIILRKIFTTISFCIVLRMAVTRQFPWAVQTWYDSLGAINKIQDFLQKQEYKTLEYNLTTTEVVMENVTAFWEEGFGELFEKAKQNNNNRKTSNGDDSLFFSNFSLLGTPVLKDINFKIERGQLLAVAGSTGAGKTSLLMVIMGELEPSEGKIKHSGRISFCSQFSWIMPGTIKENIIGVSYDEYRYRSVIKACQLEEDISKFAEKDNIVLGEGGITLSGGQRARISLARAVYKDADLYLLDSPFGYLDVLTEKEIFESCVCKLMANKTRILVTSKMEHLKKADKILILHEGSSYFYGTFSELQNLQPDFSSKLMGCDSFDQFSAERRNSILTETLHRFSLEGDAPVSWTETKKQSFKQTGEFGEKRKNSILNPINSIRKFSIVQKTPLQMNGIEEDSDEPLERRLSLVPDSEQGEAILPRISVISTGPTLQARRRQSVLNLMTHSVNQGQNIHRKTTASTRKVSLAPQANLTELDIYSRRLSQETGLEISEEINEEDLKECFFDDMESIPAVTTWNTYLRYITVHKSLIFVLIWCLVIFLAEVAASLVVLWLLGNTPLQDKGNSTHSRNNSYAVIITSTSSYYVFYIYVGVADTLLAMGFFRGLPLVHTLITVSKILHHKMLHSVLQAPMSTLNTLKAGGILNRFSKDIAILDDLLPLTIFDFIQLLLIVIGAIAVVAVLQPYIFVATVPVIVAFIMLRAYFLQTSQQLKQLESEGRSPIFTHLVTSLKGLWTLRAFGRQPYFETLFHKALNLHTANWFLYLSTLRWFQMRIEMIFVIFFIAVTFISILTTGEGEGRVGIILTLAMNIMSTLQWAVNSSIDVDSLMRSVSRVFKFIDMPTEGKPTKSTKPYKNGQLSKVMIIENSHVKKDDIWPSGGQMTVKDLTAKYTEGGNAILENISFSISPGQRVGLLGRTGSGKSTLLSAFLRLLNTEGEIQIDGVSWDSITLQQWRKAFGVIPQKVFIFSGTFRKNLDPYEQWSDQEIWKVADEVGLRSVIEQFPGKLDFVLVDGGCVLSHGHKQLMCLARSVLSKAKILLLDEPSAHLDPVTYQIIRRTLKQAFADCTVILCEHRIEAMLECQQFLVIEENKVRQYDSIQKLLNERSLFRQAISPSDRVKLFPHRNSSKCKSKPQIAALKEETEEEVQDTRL
Method: The method measures the effect of over-night compound incubation on F508del-CFTR cell surface expression in a recombinant U2OS cell line (DiscoveRx, #93-0987C3). This cell line is engineered to co-express (i) human F508del-CFTR tagged with a Prolink (PK=short ß-galactosidase fragment) and (ii) the remainder of the ß-galactosidase enzyme (Enzyme Acceptor; EA) localized to the plasma membrane. Incubation with compounds that increase PK-tagged F508del-CFTR at the plasma membrane will lead to complementation of the EA fragment to form a functional ß-galactosidase enzyme which is quantified by a chemiluminescence reaction.
The cells are incubated for 5h in the incubator before the addition of 5 μl/well of compound dilution series (5× working stocks in full medium). […] The cells are co-incubated with the compounds for 16h in the incubator at 37° C., 5% CO2. The next day, the cell plates are incubated for 2h at RT in the dark. […] Concentration-response curves are generated using compound-intrinsic maximal efficacy as upper plateau, and from these CRCs compound-intrinsic EC50 values are determined.
The calculated EC50 values may fluctuate depending on the daily assay performance. […] EC50 values from several measurements are given as geomean values. The calculated Emax values may fluctuate depending on the daily assay performance. […] Emax values from several measurements are given as arithmetic mean values.

Turning to `COc1cc(CCNC(=O)[C@@H]2CC(=O)N(C)[C@@H](CC(C)C)C(=O)N(C)[C@@H](CC(F)(F)F)C(=O)N[C@H](Cc3ccccc3)COc3ccc4nc(C)oc4c3C(=O)N2)on1` (mixture of isomers) [Example 974, (8R,11RS,14S,18S)-8-benzyl-14-isobutyl-N-(2-(3-methoxyisoxazol-5-yl)ethyl)-2,12,15-trimethyl-10,13,16,20-tetraoxo-11-(2,2,2-trifluoroethyl)-7,8,9,10,11,12,13,14,15,16,17,18,19,20-tetradecahydrooxazolo[4′,5′:5,6]benzo[1,2-p][1]oxa[4,7,10,14]tetraazacycloheptadecine-18-carboxamide], for the setting “U2OS cells, geomean of several measurements”, the EC50 came out at 703 nM. In addition, for the setting “U2OS cells, arithmetic mean”, the Emax was determined as 440%.

`CC(C)C[C@H]1C(=O)N(CCC(C)(C)C)CC(=O)N[C@H](Cc2ccccc2)COc2cc3c(cc2C(=O)N[C@H](C(=O)NCCc2ccc4c(c2)OCO4)CC(=O)N1C)OCO3` (racemic) [Example 1, (7R,13S,17RS)-N-(2-(benzo[d][1,3]dioxol-5-yl)ethyl)-7-benzyl-11-(3,3-dimethylbutyl)-13-isobutyl-14-methyl-9,12,15,19-tetraoxo-6,7,8,9,10,11,12,13,14,15,16,17,18,19-tetradecahydro-[1,3]dioxolo[4′,5′:4,5]benzo[1,2-p][1]oxa[4,7,10,14]tetraazacycloheptadecine-17-carboxamide]: the EC50 (U2OS cell line, geomean values) came to 56 nM. Moreover, the Emax under setting [1] turned out to be 105%.

For the compound `CC(C)C[C@H]1C(=O)N(CCc2ccccc2)CC(=O)N[C@H](Cc2ccccc2)COc2cc3c(cc2C(=O)N[C@H](C(=O)NCCc2ccc4c(c2)OCO4)CC(=O)N1C)OCO3` (racemic) [Example 5, (7R,13S,17RS)-N-(2-(benzo[d][1,3]dioxol-5-yl)ethyl)-7-benzyl-13-isobutyl-14-methyl-9,12,15,19-tetraoxo-11-phenethyl-6,7,8,9,10,11,12,13,14,15,16,17,18,19-tetradecahydro-[1,3]dioxolo[4′,5′:4,5]benzo[1,2-p][1]oxa[4,7,10,14]tetraazacycloheptadecine-17-carboxamide], the EC50 (U2OS cell line, geomean values) amounted to 369 nM. Under setting [1], the Emax was 109%.

Turning to `CC(C)C[C@H]1C(=O)N(CCCOCc2ccccc2)CC(=O)N[C@H](Cc2ccccc2)COc2cc3c(cc2C(=O)N[C@H](C(=O)NCCc2ccc4c(c2)OCO4)CC(=O)N1C)OCO3` (racemic) [Example 6, (7R,13S,17RS)-N-(2-(benzo[d][1,3]dioxol-5-yl)ethyl)-7-benzyl-11-(3-(benzyloxy)propyl)-13-isobutyl-14-methyl-9,12,15,19-tetraoxo-6,7,8,9,10,11,12,13,14,15,16,17,18,19-tetradecahydro-[1,3]dioxolo[4′,5′:4,5]benzo[1,2-p][1]oxa[4,7,10,14]tetraazacycloheptadecine-17-carboxamide], the EC50 (U2OS cell line, geomean values) worked out at 420 nM. Besides, under setting [1], the Emax was determined as 112%.

Consider `COc1cc2c(cc1OC)C(=O)N[C@H](C(=O)NCCc1ccc3c(c1)OCO3)CC(=O)N(C)[C@@H](CC1CC1)C(=O)N(CCC1CCCCC1)CC(=O)N[C@H](Cc1ccccc1)CO2` (racemic) [Example 9, (3R,9S,13RS)-N-(2-(benzo[d][1,3]dioxol-5-yl)ethyl)-3-benzyl-7-(2-cyclohexylethyl)-9-(cyclopropylmethyl)-17,18-dimethoxy-10-methyl-5,8,11,15-tetraoxo-2,3,4,5,6,7,8,9,10,11,12,13,14,15-tetradecahydrobenzo[p][1]oxa[4,7,10,14]tetraazacycloheptadecine-13-carboxamide], for which, for the setting “U2OS cell line, geomean values”, the EC50 came to 360 nM. The Emax under setting [1] was found to be 130%.

On to `COc1cc2c(cc1OC)C(=O)N[C@H](C(=O)NCCc1ccc3c(c1)OCO3)CC(=O)N(C)[C@@H](CC1CCCC1)C(=O)N(CCC1CCCCC1)CC(=O)N[C@H](Cc1ccccc1)CO2` (racemic) [Example 10, (3R,9S,13RS)-N-(2-(benzo[d][1,3]dioxol-5-yl)ethyl)-3-benzyl-7-(2-cyclohexylethyl)-9-(cyclopentylmethyl)-17,18-dimethoxy-10-methyl-5,8,11,15-tetraoxo-2,3,4,5,6,7,8,9,10,11,12,13,14,15-tetradecahydrobenzo[p][1]oxa[4,7,10,14]tetraazacycloheptadecine-13-carboxamide], for which, for the setting “U2OS cell line, geomean values”, the EC50 was found to be 82 nM. Moreover, the maximal response (Emax) under setting [1] worked out at 123%.

Regarding `COc1cccc2c1C(=O)N[C@H](C(=O)NCCc1ccc3c(c1)CCCO3)CC(=O)N(C)[C@@H](CC(C)C)C(=O)N(CCC1CCCCC1)CC(=O)N[C@H](Cc1ccccc1)CO2` (racemic) [Example 11, (3R,9S,13RS)-3-benzyl-N-(2-(chroman-6-yl)ethyl)-7-(2-cyclohexylethyl)-9-isobutyl-16-methoxy-10-methyl-5,8,11,15-tetraoxo-2,3,4,5,6,7,8,9,10,11,12,13,14,15-tetradecahydrobenzo[p][1]oxa[4,7,10,14]tetraazacycloheptadecine-13-carboxamide], the maximum response (Emax) under setting [1] worked out at 132%.

With `COc1cccc2c1C(=O)N[C@H](C(=O)NCCc1ccc3c(c1)OCCCO3)CC(=O)N(C)[C@@H](CC(C)C)C(=O)N(CCC1CCCCC1)CC(=O)N[C@H](Cc1ccccc1)CO2` (racemic) [Example 12, (3R,9S,13RS)-3-benzyl-7-(2-cyclohexylethyl)-N-(2-(3,4-dihydro-2H-benzo[b][1,4]dioxepin-7-yl)ethyl)-9-isobutyl-16-methoxy-10-methyl-5,8,11,15-tetraoxo-2,3,4,5,6,7,8,9,10,11,12,13,14,15-tetradecahydrobenzo[p][1]oxa[4,7,10,14]tetraazacycloheptadecine-13-carboxamide], the maximal effect (Emax) under setting [1] was 184%.

Turning to `COc1cccc2c1C(=O)N[C@H](C(=O)NCCc1ccc3c(c1)COC3)CC(=O)N(C)[C@@H](CC(C)C)C(=O)N(CCC1CCCCC1)CC(=O)N[C@H](Cc1ccccc1)CO2` (racemic) [Example 13, (3R,9S,13RS)-3-benzyl-7-(2-cyclohexylethyl)-N-(2-(1,3-dihydroisobenzofuran-5-yl)ethyl)-9-isobutyl-16-methoxy-10-methyl-5,8,11,15-tetraoxo-2,3,4,5,6,7,8,9,10,11,12,13,14,15-tetradecahydrobenzo[p][1]oxa[4,7,10,14]tetraazacycloheptadecine-13-carboxamide], the EC50 (U2OS cell line, geomean values) amounted to 268 nM. In addition, the Emax under setting [1] is 153%.

As to `COc1cccc2c1C(=O)N[C@H](C(=O)NCCc1ccc3ccoc3c1)CC(=O)N(C)[C@@H](CC(C)C)C(=O)N(CCC1CCCCC1)CC(=O)N[C@H](Cc1ccccc1)CO2` (racemic) [Example 14, (3R,9S,13RS)-N-(2-(benzofuran-6-yl)ethyl)-3-benzyl-7-(2-cyclohexylethyl)-9-isobutyl-16-methoxy-10-methyl-5,8,11,15-tetraoxo-2,3,4,5,6,7,8,9,10,11,12,13,14,15-tetradecahydrobenzo[p][1]oxa[4,7,10,14]tetraazacycloheptadecine-13-carboxamide], the EC50 (U2OS cell line, geomean values) came to 160 nM. Further, the Emax under setting [1] worked out at 185%.

As for `COc1cccc2c1C(=O)N[C@H](C(=O)NCCc1ccc3c(c1)OCC3)CC(=O)N(C)[C@@H](CC(C)C)C(=O)N(CCC1CCCCC1)CC(=O)N[C@H](Cc1ccccc1)CO2` (racemic) [Example 15, (3R,9S,13RS)-3-benzyl-7-(2-cyclohexylethyl)-N-(2-(2,3-dihydrobenzofuran-6-yl)ethyl)-9-isobutyl-16-methoxy-10-methyl-5,8,11,15-tetraoxo-2,3,4,5,6,7,8,9,10,11,12,13,14,15-tetradecahydrobenzo[p][1]oxa[4,7,10,14]tetraazacycloheptadecine-13-carboxamide], under setting [1], the Emax turned out to be 240%.

Consider `COc1cccc2c1C(=O)N[C@H](C(=O)NCCc1nc3ccccc3o1)CC(=O)N(C)[C@@H](CC(C)C)C(=O)N(CCC1CCCCC1)CC(=O)N[C@H](Cc1ccccc1)CO2` (racemic) [Example 16, (3R,9S,13RS)-N-(2-(benzo[d]oxazol-2-yl)ethyl)-3-benzyl-7-(2-cyclohexylethyl)-9-isobutyl-16-methoxy-10-methyl-5,8,11,15-tetraoxo-2,3,4,5,6,7,8,9,10,11,12,13,14,15-tetradecahydrobenzo[p][1]oxa[4,7,10,14]tetraazacycloheptadecine-13-carboxamide], for which the Emax under setting [1] came to 137%.

Regarding `Cc1csc(CCNC(=O)[C@@H]2CC(=O)N(C)[C@@H](CC(C)C)C(=O)N3CCCC[C@@H]3C(=O)N[C@H](Cc3ccccc3)COc3ccc4ncn(C)c4c3C(=O)N2)n1` (racemic) [Example 23, (8RS,12S,18aR,21R)-21-benzyl-12-isobutyl-5,11-dimethyl-N-(2-(4-methylthiazol-2-yl)ethyl)-6,10,13,19-tetraoxo-6,7,8,9,10,11,12,13,16,17,18,18a,19,20,21,22-hexadecahydro-5H,15H-imidazo[4′,5′:5,6]benzo[1,2-p]pyrido[2,1-f][1]oxa[4,7,10,14]tetraazacycloheptadecine-8-carboxamide], the Emax under setting [1] was 115%.

For `Cc1cnc(CCNC(=O)[C@@H]2CC(=O)N(C)[C@@H](CC(C)C)C(=O)N3CCCC[C@@H]3C(=O)N[C@H](Cc3ccccc3)COc3ccc4ncn(C)c4c3C(=O)N2)s1` (racemic) [Example 24, (8RS,12S,18aR,21R)-21-benzyl-12-isobutyl-5,11-dimethyl-N-(2-(5-methylthiazol-2-yl)ethyl)-6,10,13,19-tetraoxo-6,7,8,9,10,11,12,13,16,17,18,18a,19,20,21,22-hexadecahydro-5H,15H-imidazo[4′,5′:5,6]benzo[1,2-p]pyrido[2,1-f][1]oxa[4,7,10,14]tetraazacycloheptadecine-8-carboxamide], the EC50 (U2OS cell line, geomean values) came to 823 nM. Under setting [1], the Emax came out at 131%.
